Data set [1] has as its target T1, Uvi2 (Ustilago hordei, UniProt I2G262).
T1 sequence (I2G262 22-243): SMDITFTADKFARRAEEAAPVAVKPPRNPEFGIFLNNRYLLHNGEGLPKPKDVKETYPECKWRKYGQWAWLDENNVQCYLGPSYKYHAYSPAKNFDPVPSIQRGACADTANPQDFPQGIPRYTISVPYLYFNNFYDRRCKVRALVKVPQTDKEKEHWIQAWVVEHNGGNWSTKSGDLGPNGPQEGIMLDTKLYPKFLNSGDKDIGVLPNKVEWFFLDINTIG
The data set is described as follows: microscale thermophoresis. Type of data set: binding. To be noted: MST as for Cpl1. In general terms: In MST a laser heats a spot of the sample, and binding alters the fluorescence response.

Data set [2] concerns the molecule itself. In words: SEC-MALS. For orientation: SEC sorts molecules by how far they enter the pores of the column.

`CC(=O)N[C@H]1[C@H](O[C@H]2[C@H](O)[C@@H](NC(C)=O)C(O)O[C@@H]2CO)O[C@H](CO)[C@@H](O)[C@@H]1O` (some centres unmarked) [chitobiose]: binding in data set [1] was characterised by a dissociation constant (Kd) of 15 ± 3.72 µM.

B1: Uvi2 (UHOR_02700 gene product), the Cpl1 homologue from Ustilago hordei, recombinant (natural protein)
chain: SMDITFTADKFARRAEEAAPVAVKPPRNPEFGIFLNNRYLLHNGEGLPKPKDVKETYPECKWRKYGQWAWLDENNVQCYLGPSYKYHAYSPAKNFDPVPSIQRGACADTANPQDFPQGIPRYTISVPYLYFNNFYDRRCKVRALVKVPQTDKEKEHWIQAWVVEHNGGNWSTKSGDLGPNGPQEGIMLDTKLYPKFLNSGDKDIGVLPNKVEWFFLDINTIG
Regarding B1, the stoichiometry N (as a rule, the number of molecules, sites or subunits per partner or assembly) in data set [2] turned out to be 2.
